From patent publication US10745452B2, “Combination of antimicrobial peptides and antibiotic drugs for treating diseases” (OMNIX MEDICAL LTD., priority 2016, dated 2020)
Entries after “also recorded” stand apart in the source; their conditions may differ. Read-outs that look alike come from different tables or passages of the source. Ends that are not written are not given here. Peptide text beside a SMILES is read from it.

Experiments:
Assay type in all cases: cell-based
[1] = system: Salmonella serotype Typhimurium (ATCC 700408); assay: microbe, parasite or virus in culture; settings: for bacterial growth (OD600), stand-alone treatment / bacterial growth (OD600), combination: 17-20 h; for bacterial growth (OD600), combination: simultaneously; for MIC: Salmonella
Protocol: FIG. 1 presents: Salmonella serotype Typhimurium (ATCC 700408), a Multi-Drug Resistant (MDR) strain of bacteria were cultured in the presence of either OMN6 or Kanamycin KAN. […] The bacteria were incubated for 17-20 hours and the growth of the bacteria was continuously monitored via spectrophotometry at 600 nm (OD600). As bacterial growth progresses, OD600 values rise, and where the growth is inhibited OD600 values remain constant.
(§1) The bacteria were incubated for 17-20 hours and the growth of the bacteria was continuously monitored via spectrophotometry at 600 nm (OD600). As bacterial growth progresses, OD600 values rise, and where the growth is inhibited OD600 values remain constant.
FIG. 3A presents: Salmonella serotype Typhimurium (ATCC 700408), a Multi-Drug Resistant (MDR) strain of bacteria were cultured in the presence of OMN6 or AMP.

[2] = system: Pseudomonas aeruginosa (ATCC BAA-2110); assay: Growth of MDR bacteria monitored by OD600 under peptide, antibiotic or co-treatment; settings: AMP alone 128 μg/ml; 17-20 h; FIG. 3B
[3] = system: Pseudomonas aeruginosa (ATCC BAA-2110); assay: as above; settings: FIG. 3B; for bacterial growth (OD600), stand-alone treatment / bacterial growth (OD600), combination: 17-20 h; for bacterial growth (OD600), combination: OMN6 32 μg/ml together with AMP 64 μg/ml, simultaneously
Protocol: FIG. 3B presents: Pseudomonas aeruginosa (ATCC BAA-2110), a Multi-Drug Resistant (MDR) strain of bacteria were cultured in the presence of either OMN6 or AMP. The bacteria were introduced into solutions of OMN6 (32 μg/ml) and AMP (64 μg/ml) at concentrations that were previously shown to be non-effective when added alone. […] The bacteria were then cultured in the presence of a co-treatment with a combination of OMN6 and AMP, and administered simultaneously, in the same non-effective concentrations described above.
as §1

[4] = system: Salmonella serotype Typhimurium (ATCC 700408); assay: microbe, parasite or virus in culture; settings: for MIC: Salmonella; for bacterial growth (OD600), combination: simultaneously; for bacterial growth (OD600), combination / bacterial growth (OD600), stand-alone treatment: 17-20 h
[5] = OMN6 32 μg/ml together with AMP 128 μg/ml, FIG. 3A

What does the source list for `CC1(C)S[C@@H]2[C@H](NC(=O)[C@H](N)c3ccccc3)C(=O)N2[C@H]1C(=O)O` [AMP, Ampicillin, reference compound]?
bacterial growth (OD600), stand-alone treatment ([1]; AMP alone 128 μg/ml, FIG. 3A): did not inhibit bacterial growth and did not lead to bacterial death; also recorded: did not inhibit bacterial growth effectively; bacterial growth (OD600), combination [1, 5]: complete and long-lasting antimicrobial effect; also recorded: powerful antimicrobial effect; MIC ([1]; read-out: Minimal Inhibitory Concentration (MIC) of co-treatment, AMP part): 128 mg/L; bacterial growth (OD600), stand-alone treatment [2]: did not inhibit bacterial growth effectively; bacterial growth (OD600), stand-alone treatment ([3]; AMP alone 64 μg/ml): did not inhibit bacterial growth and did not lead to bacterial death; bacterial growth (OD600), combination [3]: complete and long-lasting antimicrobial effect; also recorded: powerful antimicrobial effect; MIC ([3]; Pseudomonas aeruginosa, ATCCBAA2110, in co-treatment with OMN6 32 μg/ml, read-out: Minimal Inhibitory Concentration (MIC) of co-treatment, AMP part): 64 mg/L

`C[C@@H](O)[C@H]1C(=O)N2C(C(=O)O)=C(SCCN=CN)C[C@H]12` [IPM, Imipenem, reference compound] was tested. Which MIC ([4]; read-out: Minimal Inhibitory Concentration (MIC) of co-treatment, IPM part) did it give?
Its MIC is 32 mg/L.

For `NC[C@H]1O[C@H](O[C@H]2[C@H](O)[C@@H](O[C@H]3O[C@H](CO)[C@@H](O)[C@H](N)[C@H]3O)[C@H](N)C[C@@H]2N)[C@H](O)[C@@H](O)[C@@H]1O` [KAN, Kanamycin, reference compound], which MIC ([1]; in co-treatment with OMN6 217 μg/ml, FIG. 1, read-out: Minimal Inhibitory Concentration (MIC) of co-treatment, KAN part) is on record?
The MIC was 3.75 mg/L.

Which “bacterial growth (OD600), combination” value ([4]; OMN11 304 μg/ml together with IPM 32 μg/ml, FIG. 2) does the source give for `CC[C@H](C)[C@H](NC(=O)CNC(=O)[C@H](CCC(=O)O)NC(=O)[C@H](CO)NC(=O)[C@@H](NC(=O)[C@H](CCCNC(=N)N)NC(=O)[C@H](CCCCN)NC(=O)[C@H](CCCCN)NC(=O)[C@H](C)NC(=O)[C@H](CO)NC(=O)[C@H](CC(N)=O)NC(=O)[C@H](CCC(=O)O)NC(=O)[C@H](CC(C)C)NC(=O)[C@H](CCCCN)NC(=O)[C@H](CCCCN)NC(=O)[C@H](C)NC(=O)[C@@H](NC(=O)[C@H](CCCCN)NC(=O)[C@H](CO)NC(=O)[C@H](CC(C)C)NC(=O)[C@H](Cc1c[nH]c2ccccc12)NC(=O)[C@H](CO)NC(=O)[C@H](CS)NC(=O)[C@@H](N)CCSC)[C@@H](C)O)[C@@H](C)CC)C(=O)N[C@@H](C)C(=O)N[C@H](C(=O)N[C@@H](C)C(=O)N[C@H](C(=O)N[C@@H](CCC(N)=O)C(=O)NCC(=O)NCC(=O)N1CCC[C@H]1C(=O)N[C@@H](CCCNC(=N)N)C(=O)N[C@@H](CS)C(=O)O)[C@@H](C)CC)[C@@H](C)CC` [OMN11] (H-MCSWLSKTAKKLENSAKKRISEGIAIAIQGGPRC-OH; N-terminus and C-terminus assumed) here?
Its value is “complete and long-lasting antimicrobial effect; also recorded: powerful antimicrobial effect”.

What about the “bacterial growth (OD600), stand-alone treatment” value ([4]; OMN11 alone 304 μg/ml, FIG. 2) of the same compound?
Its value is “did not inhibit bacterial growth and did not lead to bacterial death; also recorded: did not inhibit bacterial growth effectively”.

How did the MIC ([4]; in co-treatment with OMN6 32 μg/ml, FIG. 4, read-out: Minimal Inhibitory Concentration (MIC) of co-treatment, TET part) turn out when `CN(C)[C@@H]1C(O)=C(C(N)=O)C(=O)[C@@]2(O)C(O)=C3C(=O)c4c(O)cccc4[C@@](C)(O)[C@H]3C[C@@H]12` [TET, Tetracycline, reference compound] was run?
Its MIC is 162 mg/L.

Which “bacterial growth (OD600), combination” value [1, 5] does the source give for “OMN6: modified H. cecropia Cecropin A peptide, MCKWKLFKKIEKVGQNIRDGIIKAGPAVAVVGQATQIAKC (ends and bridges not checked; cysteine pairing not given here)” here?
Its value is “complete and long-lasting antimicrobial effect; also recorded: powerful antimicrobial effect”.

And the “bacterial growth (OD600), combination” value ([1]; OMN6 217 μg/ml together with KAN 3.75 μg/ml, FIG. 1)?
The value was “complete and long-lasting antimicrobial effect; also recorded: powerful antimicrobial effect”.

What about the “bacterial growth (OD600), stand-alone treatment” value ([1]; OMN6 alone 32 μg/ml, FIG. 3A) of the same compound?
The value was “did not inhibit bacterial growth and did not lead to bacterial death; also recorded: did not inhibit bacterial growth effectively”.

What about the “bacterial growth (OD600), stand-alone treatment” value ([1]; OMN6 alone 32 μg/ml, FIG. 4) of the same compound?
Its value is “did not inhibit bacterial growth and did not lead to bacterial death; also recorded: did not inhibit bacterial growth effectively”.

And the “Minimal Inhibitory Concentration (MIC) of co-treatment, OMN6 part” value (from here on “Minimal Inhibitory Concentration (MIC)”) ([1]; in co-treatment with AMP 128 μg/ml, FIG. 3A)?
Its value is 32 mg/L.

And the “Minimal Inhibitory Concentration (MIC)” value ([1]; in co-treatment with KAN 3.75 μg/ml, FIG. 1)?
The value was 217 mg/L.

What about the “bacterial growth (OD600), combination” value ([4]; OMN6 32 μg/ml together with TET 16 μg/ml, FIG. 4) of the same compound?
The value was “complete and long-lasting antimicrobial effect; also recorded: powerful antimicrobial effect”.

What about the “bacterial growth (OD600), stand-alone treatment” value ([4]; OMN6 alone 217 μg/ml, FIG. 1) of the same compound?
The value was “did not inhibit bacterial growth and did not lead to bacterial death; also recorded: did not inhibit bacterial growth effectively”.

What about the “bacterial growth (OD600), combination” value [3] of the same compound?
The value was “complete and long-lasting antimicrobial effect; also recorded: powerful antimicrobial effect”.

And the “bacterial growth (OD600), stand-alone treatment” value ([3]; OMN6 alone 32 μg/ml)?
The value was “did not inhibit bacterial growth and did not lead to bacterial death; also recorded: did not inhibit bacterial growth effectively”.

What about the “Minimal Inhibitory Concentration (MIC)” value ([3]; in co-treatment with AMP 64 μg/ml) of the same compound?
The value was 32 mg/L.
